Experimental findings from patent US20130158075A1, “HETEROCYCLIC COMPOUNDS AS DGAT1 INHIBITORS” (PIRAMAL ENTERPRISES LIMITED, priority 2010, published 2013) are described below.

One experiment concerns the target T1, hDGAT1 (Homo sapiens, UniProt O75907).
T1 construct: made in house; host or cells: Sf9 insect cells (baculovirus); microsomal fraction
T1 sequence (O75907 1-488): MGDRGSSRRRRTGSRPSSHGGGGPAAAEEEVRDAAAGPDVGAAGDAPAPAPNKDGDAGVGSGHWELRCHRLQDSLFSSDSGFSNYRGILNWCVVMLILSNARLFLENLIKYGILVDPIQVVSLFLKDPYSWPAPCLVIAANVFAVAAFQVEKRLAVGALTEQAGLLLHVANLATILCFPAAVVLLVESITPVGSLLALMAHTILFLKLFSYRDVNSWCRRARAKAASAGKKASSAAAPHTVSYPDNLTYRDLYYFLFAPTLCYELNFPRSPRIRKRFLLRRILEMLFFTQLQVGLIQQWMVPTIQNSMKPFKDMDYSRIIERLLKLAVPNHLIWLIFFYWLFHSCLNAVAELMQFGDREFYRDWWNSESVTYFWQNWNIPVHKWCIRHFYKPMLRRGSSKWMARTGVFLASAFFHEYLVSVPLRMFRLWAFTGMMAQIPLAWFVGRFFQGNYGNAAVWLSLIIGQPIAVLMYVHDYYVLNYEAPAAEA
The experiment is described as follows: In-vitro DGAT1 assay with hDGAT1 microsomes from Sf9 cells (14C oleoyl CoA, scintillation counting). In kind it is biochemical. The conditions noted are these: at 1 μM. The procedure:
Sf9 cells were grown in T25 flasks containing Graces's Insect media with 10% FBS with antibiotic (100 units/mL penicillin, 100 μg/mL streptomycin sulphate, 0.25 μg/mL Amptotericin B as Fungizone) grown in a 27° C. incubator.
hDGAT10RF expression clone (RZPDo839C09146 in pDEST vector) was obtained from RZPD, German Science Center for Genomes research, Germany. hDGAT1 bacmid DNA was obtained by transformation of the hDGAT1 expression clone into DH10Bac E. coli competent cells. Approximately 1 μg of hDGAT1 bacmid DNA was infected into Sf9 cells with Cellfectin (Invitrogen) reagent. Following infection, Sf9 cells were incubated at 27° C. for 30 min. Five hours after infection, the media was replaced with growth media containing antibiotics (100 units/mL penicillin, 100 μg/mL streptomycin sulphate, 0.25 μg/mL Amptotericin B as Fungizone) and incubated at 27° C. for 72 h. The supernatant containing the virus was centrifuged at 1500×g for 5 min, passed through 0.22 μm filter, and subsequently stored at 4° C. The virus was further amplified three more times by re-infection of Sf9 cells and the viral titer was determined by plaque assay.
Sf9 cells were seeded in spinner flasks on day 0 at a cell density of 1×10^6 and infected on day 1 with hDGAT1 baculovirus at a multiplicity of infection (MOI) of 5 and a cell density of 2×10^6. On day 3 (or 66-72 h), cells were harvested and centrifuged at 2500×g for 10 min. Pellet was resuspended in lysis buffer (100 mM sucrose, 50 mM KCl, 40 mM KH2PO4, 30 mM EDTA, pH 7.2) and passed through 21-gauge needle approximately 10 times. The mixture was centrifuged at 12,000 rpm in a Sigma 12158-H rotor at 4° C. for 30 min. The supernatant was subjected to centrifugation at 35,000 rpm in a Beckman Ti-45 rotor at 4° C. for 1 h. The resultant pellet containing the microsomes wasere resuspended overnight in 1 mL of lysis buffer and total protein concentration was estimated using Bradford Reagent. Microsomes were aliquoted and stored at −80° C.
Frozen aliquots of hDGAT1 containing microsomes were thawed (5-10 mg/mL total protein) on ice and diluted to a working stock of 1 mg/mL with DGAT Assay Buffer (DAB). The DGAT reaction assay was performed by following the procedure described in U.S. Pat. No. 6,607,893 with some modifications that are described below.
1 mL stock solution of DGAT1 substrate mixture contains 5.6 μL of ^14C oleoyl CoA (16.8 nCi) and […] of 1,2-dioleoyl-sn-glycerol (1228.5 μM) 1,2-dioleoyl-sn-glycerol stock (19.5 mM) was prepared by dissolving 25 mg of 1,2-dioleoyl-sn-glycerol (Sigma, US) in 2060 μL of acetone.
The assay was performed in duplicates in a reaction volume of 100 μL.
The reaction was started by the addition of 2.5 μL of 1 mg/mL of microsomes (iv) to the mixture of (i), (ii) and (iii), and incubated at 37° C. for 10 min. The reaction was stopped by the addition of 300 μL of Alkaline Ethanol Stop Solution Mix [AESSM; 12.5% of 100% non-denatured ethanol, 10% deionized water, 2.5% 1N NaOH, 75% stop solution (78.4% isopropanol, 19.6% n-heptane, 2% deionized water)] followed by addition of 600 μL of n-heptane. The mixture was vortexed and the triglycerides formed were extracted into the organic heptane phase. 250 μL of the heptane phase was added into 4 mL scintillation cocktail (66.72% toluene, 33.3% TritonX-100, 0.5% PPO, 0.02% POPOP) and counted on a liquid scintillation counter for 1 min. Data was collected and plotted as a function of concentration in nM versus percentage inhibition of hDGAT1 by the compounds of present invention.
For the compound “3-(5-(4-(3-(2-Chlorophenyl)ureido)phenyl)thiazol-2-yl)-2,2-diethylpropanoic acid [Example 30]”, the “Percentage inhibition of hDGAT1” value is “++ (>50 % Inhibition)”.
Same read-out and setting: for “3-(5-(4-(4-Tert-butyl benzamido)phenyl)oxazol-2-yl)-2,2-dimethylpropanoic acid [Example 126]” the value was “+ (20-50% Inhibition)”; for “4-(3-(4-(3-(2,4-Difluorophenyl)ureido)phenyl)-1,2,4-oxadiazol-5-yl)butanoic acid [Example 332]”, “+ (20-50% Inhibition)”.
As to “4-(5-(4-(3-(2-Fluorophenyl)-2-methylguanidino)phenyl)thiazol-2-yl)-2,2-dimethyl butanoic acid [Example 271]”, the “Percentage inhibition of hDGAT1” value is “+ (20-50% Inhibition)”.
The same measure, in the same setting: as for `CC(C)(Cc1ncc(-c2ccc(NC(=O)c3ccc(-c4ccccc4)cc3)cc2)s1)C(=O)O` [Example 44, 3-(5-(4-Biphenyl-4-ylcarboxamidophenyl)thiazol-2-yl)-2,2-dimethylpropanoic acid], the entry is “+ (20-50% Inhibition)”.

Staying with this experiment, now noted: read-out: Percentage inhibition of hDGAT1.
Broadly, the inhibition is how much of the control response was suppressed. Consider `O=C(O)CCc1ncc(-c2ccc(NC(=O)Nc3cccc(C(F)(F)F)c3)cc2)s1` [Example 7, 3-(5-(4-(3-(3-(Trifluoromethyl)phenyl)ureido)phenyl)thiazol-2-yl)propanoic acid], for which the inhibition at 1 µM is over 50%.
As to `O=C(O)CCc1ncc(-c2ccc(NC(=O)Nc3ccccc3Cl)cc2)s1` [Example 9, 3-(5-(4-(3-(2-Chlorophenyl)ureido)phenyl)thiazol-2-yl)propanoic acid], the inhibition at 1 µM was over 50%.
Same read-out and setting: for `O=C(O)CCc1ncc(-c2ccc(NC(=O)NC3CCCCC3)cc2)s1` [Example 11, 3-(5-(4-(3-Cyclohexylureido)phenyl)thiazol-2-yl)propanoic acid] the value was over 50%; for `O=C(O)CCc1ncc(-c2ccc(NC(=O)Nc3ccc(Cl)cc3Oc3ccccc3)cc2)s1` [Example 13, 3-(5-(4-(3-(4-Chloro-2-phenoxyphenyl)ureido)phenyl)thiazol-2-yl)propanoic acid], over 50%.
Still for that read-out and setting: for `CC(C)(C)c1ccc(C(=O)Nc2ccc(-c3cnc(CCC(=O)O)s3)cc2)cc1` [Example 15, 3-(5-(4-(4-Tert-butylbenzamido)phenyl)thiazol-2-yl)propanoic acid] the value was over 50%; for `CCCCCc1ccc(C(=O)Nc2ccc(-c3cnc(CCC(=O)O)s3)cc2)cc1` [Example 17, 3-(5-(4-(4-Pentylbenzamido)phenyl)thiazol-2-yl)propanoic acid], over 50%; for `CCOc1cc(COC)cc(C(=O)Nc2ccc(-c3cnc(CCC(=O)O)s3)cc2)c1` [Example 19, 3-(5-(4-(3-Ethoxy-5-(methoxymethyl)benzamido)phenyl)thiazol-2-yl)propanoic acid], over 50%.
On the same count and under the same terms, for `O=C(O)CCc1ncc(-c2ccc(NC(=O)c3ccc4ccccc4c3)cc2)s1` [Example 21, 3-(5-(4-(2-Naphthamido)phenyl)thiazol-2-yl)propanoic acid] the value was over 50%; for `CCCCOc1ccc(C(=O)Nc2ccc(-c3cnc(CCC(=O)O)s3)cc2)cc1` [Example 23, 3-(5-(4-(4-Butoxybenzamido)phenyl)thiazol-2-yl)propanoic acid], over 50%.
For `COc1ccc(S(=O)(=O)Nc2ccc(-c3cnc(CCC(=O)O)s3)cc2)c(OC)c1` [Example 25, 3-(5-(4-(2,4-Dimethoxyphenylsulfonamido)phenyl)thiazol-2-yl)propanoic acid], the inhibition at 1 µM lay within 20 to 50%.
Still for that read-out and setting: as for `CC(C)(Cc1ncc(-c2ccc(NC(=O)Nc3ccc(C(F)(F)F)cc3)cc2)s1)C(=O)O` [Example 32, 2,2-Dimethyl-3-(5-(4-(3-(4-(trifluoromethyl)phenyl)ureido)phenyl)thiazol-2-yl)propanoic acid], the figure is over 50%; as for `CC(C)(Cc1ncc(-c2ccc(NC(=O)Nc3ccc(F)cc3)cc2)s1)C(=O)O` [Example 34, 3-(5-(4-(3-(4-Fluorophenyl)ureido)phenyl)thiazol-2-yl)-2,2-dimethylpropanoic acid], 20 to 50%.
The same measure, in the same setting: as for `COc1ccc(NC(=O)Nc2ccc(-c3cnc(CC(C)(C)C(=O)O)s3)cc2)cc1` [Example 36, 3-(5-(4-(3-(4-Methoxyphenyl)ureido)phenyl)thiazol-2-yl)-2,2-dimethyl propanoic acid], the figure is over 50%.
With `CC(C)(Cc1ncc(-c2ccc(NC(=O)NC3CCCCC3)cc2)s1)C(=O)O` [Example 38, 3-(5-(4-(3-Cyclohexylureido)phenyl)thiazol-2-yl)-2,2-dimethylpropanoic acid], the inhibition at 1 µM was in the range of 20 to 50%.
The same measure, in the same setting: as for `CC(C)(Cc1ncc(-c2ccc(NC(=O)Nc3ccc(Cl)cc3Oc3ccccc3)cc2)s1)C(=O)O` [Example 40, 3-(5-(4-(3-(4-Chloro-2-phenoxyphenyl)ureido)phenyl)thiazol-2-yl)-2,2-dimethylpropanoic acid], the figure is over 50%; as for `CC(C)(Cc1ncc(-c2ccc(NC(=O)c3ccc(C(C)(C)C)cc3)cc2)s1)C(=O)O` [Example 42, 3-(5-(4-(4-tert-Butylbenzamido)phenyl)thiazol-2-yl)-2,2-dimethylpropanoic acid], 20 to 50%; as for `O=C(O)CCCc1ncc(-c2ccc(NC(=O)Nc3cccc(C(F)(F)F)c3)cc2)s1` [Example 49, 4-(5-(4-(3-(3-(Trifluoromethyl)phenyl)ureido)phenyl)thiazol-2-yl)butanoic acid], over 50%.
With `O=C(O)CCCc1ncc(-c2ccc(NC(=O)Nc3ccccc3Cl)cc2)s1` [Example 51, 4-(5-(4-(3-(2-Chlorophenyl)ureido)phenyl)thiazol-2-yl)butanoic acid], the inhibition at 1 µM was over 50%.
Still for that read-out and setting: for `Cc1ccc(NC(=O)Nc2ccc(-c3cnc(CCCC(=O)O)s3)cc2)cc1C` [Example 53, 4-(5-(4-(3-(3,4-Dimethylphenyl)ureido)phenyl)thiazol-2-yl)butanoic acid] the value was over 50%; for `O=C(O)CCCc1ncc(-c2ccc(NC(=O)Nc3ccc(Cl)cc3Oc3ccccc3)cc2)s1` [Example 55, 4-(5-(4-(3-(4-Chloro-2-phenoxyphenyl)ureido)phenyl)thiazol-2-yl)butanoic acid], over 50%.
Still for that read-out and setting: for `CC(C)(C)c1ccc(C(=O)Nc2ccc(-c3cnc(CCCC(=O)O)s3)cc2)cc1` [Example 57, 4-(5-(4-(4-Tert-butylbenzamido)phenyl)thiazol-2-yl)butanoic acid] the value was 20 to 50%; for `CCCCCc1ccc(C(=O)Nc2ccc(-c3cnc(CCCC(=O)O)s3)cc2)cc1` [Example 59, 4-(5-(4-(4-Pentylbenzamido)phenyl)thiazol-2-yl)butanoic acid], over 50%.
